Data taken from publication PMC3531425, “Low Resolution Solution Structure of HAMLET and the Importance of Its Alpha-Domains in Tumoricidal Activity” (PLoS ONE, 2012).

Test system: A549 cells
Test: K^+ flux, FluxOR potassium ion channel assay (Tl^+ influx), fluorometry
Type: cell-based, human
Settings: HAMLET or sodium oleate alone, FluxOR, mean of at least two experiments
Method: (§1) To quantify the ion fluxes, fluorometry was measured in a plate reader (TECAN infinite F200, Tecan Group, Switzerland). For calcium fluxes measurement, the Fluo-4 NW calcium assay kit (Invitrogen) was used. For K^+ fluxes, the FluxOR™ potassium ion channel assay (Invitrogen) was used according to the manufacturer's instructions but component E was excluded. Briefly, cells were incubated with FluxOR™, which is a Tl^+ indicator. An increase in fluorescence signal corresponds to an influx of Tl^+, indicating opening of potassium channels, which was measured at 535 nm after excitation at 485 nm in the TECAN infinite plate reader. Given the driving force for K^+ flux across the plasma membrane this corresponds to K^+ efflux. Calcium and potassium fluxes was measured in 20 000 A549 cells plated in a 96-well plate. Sodium was measured in 100 000 Jurkat cells using the CoroNa Green Sodium Indicator (Invitrogen).

| Compound | K^+ flux, substance alone |
| --- | --- |
| CCCCCCCC/C=C\CCCCCCCC(=O)O [Sodium oleate, sodium oleate, reference compound] | significant K^+ fluxes |

Same assay, conditions: peptide mixed with sodium oleate, FluxOR fluorescence

| Compound | K^+ flux, + oleate |
| --- | --- |
| ATEKLEQWLAEKL [Peptide 12, C-terminal peptide of α-lactalbumin library] | No |
| KQFTKAELSQLLKDI [Peptide 1, 15-amino-acid peptide of α-lactalbumin library, numbered from the N-terminal] | triggered K^+ fluxes and Yes |
| IVENNESTEYGLFQI [Peptide 5, 15-amino-acid peptide of α-lactalbumin library] | No |
| AAKKILDIKGIDYWL [Peptide 10, 15-amino-acid peptide of α-lactalbumin library] | No |
| NIADISADKFLDDDI [Peptide 8, 15-amino-acid peptide of α-lactalbumin library] | No |
| AKSSQVPQSRNIADI [Peptide 7, 15-amino-acid peptide of α-lactalbumin library] | No |
| LLKDIDGYGGIALPE [Peptide 2, 15-amino-acid peptide of α-lactalbumin library] | No |
| IDYWLAHKALATEKL [Peptide 11, 15-amino-acid peptide of α-lactalbumin library] | triggered K^+ fluxes and Yes |
| IALPELIATMFHTSG [Peptide 3, 15-amino-acid peptide of α-lactalbumin library] | No |
| LDDDITDDIMAAKKI [Peptide 9, 15-amino-acid peptide of α-lactalbumin library] | No |
| FHTSGYDTQAIVENN [Peptide 4, 15-amino-acid peptide of α-lactalbumin library] | No |

Same assay, conditions: peptide without sodium oleate, FluxOR fluorescence

| Compound | K^+ flux, - oleate |
| --- | --- |
| ATEKLEQWLAEKL [Peptide 12, C-terminal peptide of α-lactalbumin library] | No |
| KQFTKAELSQLLKDI [Peptide 1, 15-amino-acid peptide of α-lactalbumin library, numbered from the N-terminal] | triggered K^+ fluxes and Yes |
| IVENNESTEYGLFQI [Peptide 5, 15-amino-acid peptide of α-lactalbumin library] | No |
| AAKKILDIKGIDYWL [Peptide 10, 15-amino-acid peptide of α-lactalbumin library] | No |
| NIADISADKFLDDDI [Peptide 8, 15-amino-acid peptide of α-lactalbumin library] | No |
| AKSSQVPQSRNIADI [Peptide 7, 15-amino-acid peptide of α-lactalbumin library] | No |
| LLKDIDGYGGIALPE [Peptide 2, 15-amino-acid peptide of α-lactalbumin library] | No |
| IDYWLAHKALATEKL [Peptide 11, 15-amino-acid peptide of α-lactalbumin library] | triggered K^+ fluxes and Yes |
| IALPELIATMFHTSG [Peptide 3, 15-amino-acid peptide of α-lactalbumin library] | No |
| LDDDITDDIMAAKKI [Peptide 9, 15-amino-acid peptide of α-lactalbumin library] | No |
| FHTSGYDTQAIVENN [Peptide 4, 15-amino-acid peptide of α-lactalbumin library] | No |

Test system: A549 cells
Test: Ca^2+ flux, Fluo-4 NW calcium assay, fluorometry
Type: cell-based, human
Settings: HAMLET or sodium oleate alone, Fluo-4, mean of at least two experiments
Method: as §1

| Compound | Ca^2+ flux, substance alone |
| --- | --- |
| CCCCCCCC/C=C\CCCCCCCC(=O)O [Sodium oleate, sodium oleate, reference compound] | not observed |

Same assay, conditions: peptide mixed with sodium oleate, Fluo-4 fluorescence

| Compound | Ca^2+ flux, + oleate |
| --- | --- |
| ATEKLEQWLAEKL [Peptide 12, C-terminal peptide of α-lactalbumin library] | No |
| KQFTKAELSQLLKDI [Peptide 1, 15-amino-acid peptide of α-lactalbumin library, numbered from the N-terminal] | No |
| IVENNESTEYGLFQI [Peptide 5, 15-amino-acid peptide of α-lactalbumin library] | No |
| AAKKILDIKGIDYWL [Peptide 10, 15-amino-acid peptide of α-lactalbumin library] | weaker Ca^2+ flux |
| NIADISADKFLDDDI [Peptide 8, 15-amino-acid peptide of α-lactalbumin library] | No |
| AKSSQVPQSRNIADI [Peptide 7, 15-amino-acid peptide of α-lactalbumin library] | No |
| LLKDIDGYGGIALPE [Peptide 2, 15-amino-acid peptide of α-lactalbumin library] | No |
| IDYWLAHKALATEKL [Peptide 11, 15-amino-acid peptide of α-lactalbumin library] | increased Ca^2+ fluxes and Yes |
| IALPELIATMFHTSG [Peptide 3, 15-amino-acid peptide of α-lactalbumin library] | No |
| LDDDITDDIMAAKKI [Peptide 9, 15-amino-acid peptide of α-lactalbumin library] | No |
| FHTSGYDTQAIVENN [Peptide 4, 15-amino-acid peptide of α-lactalbumin library] | No |

Same assay, conditions: peptide without sodium oleate, Fluo-4 fluorescence

| Compound | Ca^2+ flux, - oleate |
| --- | --- |
| ATEKLEQWLAEKL [Peptide 12, C-terminal peptide of α-lactalbumin library] | No |
| KQFTKAELSQLLKDI [Peptide 1, 15-amino-acid peptide of α-lactalbumin library, numbered from the N-terminal] | No |
| IVENNESTEYGLFQI [Peptide 5, 15-amino-acid peptide of α-lactalbumin library] | No |
| AAKKILDIKGIDYWL [Peptide 10, 15-amino-acid peptide of α-lactalbumin library] | weaker Ca^2+ flux |
| NIADISADKFLDDDI [Peptide 8, 15-amino-acid peptide of α-lactalbumin library] | No |
| AKSSQVPQSRNIADI [Peptide 7, 15-amino-acid peptide of α-lactalbumin library] | No |
| LLKDIDGYGGIALPE [Peptide 2, 15-amino-acid peptide of α-lactalbumin library] | No |
| IDYWLAHKALATEKL [Peptide 11, 15-amino-acid peptide of α-lactalbumin library] | increased Ca^2+ fluxes and Yes |
| IALPELIATMFHTSG [Peptide 3, 15-amino-acid peptide of α-lactalbumin library] | No |
| LDDDITDDIMAAKKI [Peptide 9, 15-amino-acid peptide of α-lactalbumin library] | No |
| FHTSGYDTQAIVENN [Peptide 4, 15-amino-acid peptide of α-lactalbumin library] | No |

Test system: Jurkat cells
Test: Na^+ flux, CoroNa Green Sodium Indicator, fluorometry
Type: cell-based, human
Settings: HAMLET or sodium oleate alone, CoroNa Green, mean of at least two experiments
Method: as §1

| Compound | Na^+ flux, substance alone |
| --- | --- |
| CCCCCCCC/C=C\CCCCCCCC(=O)O [Sodium oleate, sodium oleate, reference compound] | not observed |

Same assay, conditions: peptide mixed with sodium oleate, CoroNa Green fluorescence

| Compound | Na^+ flux, + oleate |
| --- | --- |
| ATEKLEQWLAEKL [Peptide 12, C-terminal peptide of α-lactalbumin library] | No |
| KQFTKAELSQLLKDI [Peptide 1, 15-amino-acid peptide of α-lactalbumin library, numbered from the N-terminal] | No |
| IVENNESTEYGLFQI [Peptide 5, 15-amino-acid peptide of α-lactalbumin library] | No |
| AAKKILDIKGIDYWL [Peptide 10, 15-amino-acid peptide of α-lactalbumin library] | Weak Na^+ fluxes |
| NIADISADKFLDDDI [Peptide 8, 15-amino-acid peptide of α-lactalbumin library] | No |
| AKSSQVPQSRNIADI [Peptide 7, 15-amino-acid peptide of α-lactalbumin library] | No |
| LLKDIDGYGGIALPE [Peptide 2, 15-amino-acid peptide of α-lactalbumin library] | No |
| IDYWLAHKALATEKL [Peptide 11, 15-amino-acid peptide of α-lactalbumin library] | No |
| IALPELIATMFHTSG [Peptide 3, 15-amino-acid peptide of α-lactalbumin library] | No |
| LDDDITDDIMAAKKI [Peptide 9, 15-amino-acid peptide of α-lactalbumin library] | No |
| FHTSGYDTQAIVENN [Peptide 4, 15-amino-acid peptide of α-lactalbumin library] | No |

Same assay, conditions: peptide without sodium oleate, CoroNa Green fluorescence

| Compound | Na^+ flux, - oleate |
| --- | --- |
| ATEKLEQWLAEKL [Peptide 12, C-terminal peptide of α-lactalbumin library] | No |
| KQFTKAELSQLLKDI [Peptide 1, 15-amino-acid peptide of α-lactalbumin library, numbered from the N-terminal] | No |
| IVENNESTEYGLFQI [Peptide 5, 15-amino-acid peptide of α-lactalbumin library] | No |
| NIADISADKFLDDDI [Peptide 8, 15-amino-acid peptide of α-lactalbumin library] | No |
| AKSSQVPQSRNIADI [Peptide 7, 15-amino-acid peptide of α-lactalbumin library] | No |
| LLKDIDGYGGIALPE [Peptide 2, 15-amino-acid peptide of α-lactalbumin library] | No |
| IDYWLAHKALATEKL [Peptide 11, 15-amino-acid peptide of α-lactalbumin library] | No |
| IALPELIATMFHTSG [Peptide 3, 15-amino-acid peptide of α-lactalbumin library] | No |
| LDDDITDDIMAAKKI [Peptide 9, 15-amino-acid peptide of α-lactalbumin library] | No |
| FHTSGYDTQAIVENN [Peptide 4, 15-amino-acid peptide of α-lactalbumin library] | No |

Test system: lung carcinoma or leukemia cells
Test: Tumor cell death (ATP level, PrestoBlue), cell line not given
Type: cell-based, human
Settings: sodium oleate alone; 3 hours
Method: A549 human lung carcinoma cell line and the Jurkat human acute T-cell leukemia cell line (obtained from ATCC, Manassas, VA, USA) were cultured in RPMI-1640 with non-essential amino acids (1∶100), 1 mM sodium pyruvate (all from PAA, Pasching, Austria), […] Gentamicin (Gibco, Paisley, UK) and 5% fetal calf serum (FCS) at 37°C, 5% CO2. Cells (5*10^5 cells/ml for A549 cells, 1*10^6 cells/ml for Jurkat cells) in suspension were incubated with either […] or peptide-oleate mixtures in serum-free RPMI-1640 at 37°C, 5% CO2. 5% FCS was added after 1 hour. Cell death was quantified by ATP level measurement (ATPlite Kit, PerkinElmer, Waltham, MA, Infinite F200, Tecan Group Ltd., Männedorf, Switzerland) and by using PrestoBlueTM Cell Viability Reagent (Invitrogen, Carlsbad, CA).

| Compound | Tumor cell killing in the absence of peptide |
| --- | --- |
| CCCCCCCC/C=C\CCCCCCCC(=O)O [Sodium oleate, sodium oleate, reference compound] | did not kill the tumor cells |

Test system: A549 lung carcinoma cells
Test: Cell morphology by phase holographic imaging and transmission DIC
Type: cell-based, human
Settings: A549; 1 h
Method: For cellular uptake assays, A549 lung carcinoma cells were grown overnight on 8-well chamber slides (Nalge Nunc, Rochester, NY). Cells were incubated 1 hour with 35 μM biotinylated peptide with or without 175 μM sodium oleate (Sigma) in serum free RPMI media, followed by fixation (4% paraformaldehyde) and permeabilization (0.25% Triton X-100, 5% FCS in phosphate-buffered saline). Peptides were visualized by incubation with streptavidin-Alexa568 (Molecular Probes) and Wheat Germ Agglutinin (WGA) (Molecular Probes) was used to visualize plasma and nuclear membranes. Images were captured on a LSM510 META confocal microscope (Carl Zeiss, Jena, Germany) with pinhole settings corresponding to one airy unit. Quantification of fluorescence intensities was performed with the ImageJ software. The HoloMonitorTM M3 digital holographic microscope (Phase Holographic Imaging AB, Lund, Sweden) records 3D information of cells using interfering wave fronts induced by the exposure to a 0.8 mW HeNe laser (633 nm), resembling a Mach-Zender interferometer where the cells, placed in one of the interfering wave fronts, induce a phase difference between the two beams [26]-[28]. The interference pattern (hologram) is recorded on a digital sensor and is used to reconstruct the amplitude and phase of the object as described, [30]. […]

| Compound | Cell morphology by transmission light DIC, oleate-free peptide or oleate alone |
| --- | --- |
| CCCCCCCC/C=C\CCCCCCCC(=O)O [Sodium oleate, sodium oleate, reference compound] | remain as flat and extended |
